Values of other authors as cited in patent publication US11298425B2, “Delivery of a chemotherapy agent across the blood-brain barrier” (ROWLESBIOMED, LLC, priority 2018, dated 2022).
Like-named read-outs stand apart in the source and are kept apart here.

How the values were obtained:
[1] = mice
[2] = rats
[3] = pigs
[4] = humans, measured in the tissues of human cadavers

SMILES | brain-to-blood ratio [1] | brain-to-blood ratio [2] | brain-to-blood ratio [3] | brain-to-blood ratio [4]
CCCc1cc(O)c2c(c1)OC(C)(C)[C@@H]1CCC(C)=C[C@@H]21 [THCV, tetrahydrocannabivarin] | even higher than THC |  |  | 
CCCCCc1cc(O)c2c(c1)OC(C)(C)[C@@H]1CCC(C)=C[C@@H]21 [THC, tetrahydrocannabinol] | 1.6 | 2.0 | 2.6 | 3.0
